Patent US4666908A, “5-Substituted pyrazolo[4,3-d]pyrimidine-7-ones and methods of use” (Warner-Lambert Company, priority 1985, dated 1987)
Where two headings read alike, the source gives them in different places.

Experiments:
Type 3 Phosphodiesterase = assay: Phosphodiesterase (PDE) Inhibition, Type 3 Phosphodiesterase; type: biochemical, bovine (coronary arteries); settings: Type 3 PDE, at 10^-5 M, substrate 3H-cAMP 1.0 μM
Description: (§1) The method of Thompson, et al (Thompson, W. J., Terasaki, W. L., Epstein, P. M., Strada, S. J., Adv. Cyclic Nucleotide Res., 10:69-92, 1979), with minor modifications, was used to isolate phosphodiesterases from vascular smooth muscle. Bovine coronary arteries (right, anterior descending, and left circumflex arteries) from hearts obtained from a local slaughterhouse were used for these studies. Arteries from two hearts were used for each isolation. Hearts were kept on ice and the arteries were dissected within two hours after the animals were sacrificed. After removing all fat and connective tissue, the arteries were everted, cut into cubes with a single edge razor blade and homogenized with a Brinkman Polytron three times at a rheostat setting of 10.0 in four volumes of the PDE isolation buffer (10 mM Tris-HCl/pH 7.5, 2 mM MgCl2, and 1 mM dithiothreitol). The resulting homogenate was sonicated (30 sec/ml homogenate) and then centrifuged at 30,000 xg for 20 minutes. This and all subsequent procedures were performed at 4° C. The resulting supernatant was filtered through four layers of gauze, and applied to a DEAE-cellulose column (30×1.5 cm), prepared as described by Cheung (Cheung, W. Y., Biochim. Biophys. Acta, 191:303-315, 1969), and equilibrated with freshly prepared 70 mM sodium acetate/5 mM 2-mercaptoethanol (pH 6.5). The column was then washed with 2-3 bed volumes of sodium acetate/2-mercaptoethanol, after which the phosphodiesterases were eluted from the column using a continuous 70-1,000 mM sodium acetate gradient (pH 6.5, containing 5 mM 2-mercaptoethanol; total volume 400 ml). The flow rate was approximately equal to 25 ml/hr. Eight ml fractions were collected and assayed for cyclic AMP- and cyclic GMP-phosphodiesterase activity in the presence and absence of 0.1 units of calmodulin and 10 mM CaCl2. Appropriate fractions were pooled and dialyzed against 70 mM sodium acetate/5 mM 2-mercaptoethanol for 20 hours.
(§2) Following complete separation, the combined phosphodiesterase fractions were concentrated to 14% of the original volume using an Amicon ultrafiltration cell fitted with a UM-10 membrane, according to the method of Wells, et al (Wells, J. N., Baird, C. E., Wu, Y. J., Hardman, J. G., Biochim. Biophys. Acta, 384:430-442, 1975). Following concentration, the protein was then diluted to 65% with ethylene glycol monoethyl ether, and stored at -20° C.
(§3) Phosphodiesterase activity was measured as described previously (Weishaar, P. E., Quade, M., Boyd, D., Schenden, J., Mark, S. S., Kaplan, H. R., Drug Devel. Res., 3:517-534, 1983), in a reaction medium containing 40 mM Tris-HCl (pH 8.0), 5 mM MgCl and 4 mM 2-mercaptoethanol. Unless otherwise noted, the concentration of substrate (^3 H-cyclic AMP or ^3 H-cyclic GMP) was 1.0 μM. All agents examined were dissolved in dimethyl sulfoxide (DMSO). Final concentration of the reaction medium was either 2.5% (cardiac and platelet studies) or 1.25% (smooth muscle studies). This concentration of DMSO produced an approximately 10% inhibition of enzyme activity.

adenosine A1 receptor = biological target: T1, adenosine A1 receptor (Rattus norvegicus, UniProt P25099); assay: Adenosine Receptor Binding - A1 Receptor Affinity (RBA1), [3H]-N6-cyclohexyladenosine displacement; settings: [3H]-CHA 1.0 nM, rat brain membranes, 25° C., one hour; read-out: RBA-1, IC50 for adenosine A1 receptor affinity
T1 construct: Whole brain minus cerebellum and brainstem from male Long Evans rats; from tissue; host or cells: whole brain minus cerebellum and brainstem, male Long Evans rats (membranes)
T1 sequence (P25099 1-326): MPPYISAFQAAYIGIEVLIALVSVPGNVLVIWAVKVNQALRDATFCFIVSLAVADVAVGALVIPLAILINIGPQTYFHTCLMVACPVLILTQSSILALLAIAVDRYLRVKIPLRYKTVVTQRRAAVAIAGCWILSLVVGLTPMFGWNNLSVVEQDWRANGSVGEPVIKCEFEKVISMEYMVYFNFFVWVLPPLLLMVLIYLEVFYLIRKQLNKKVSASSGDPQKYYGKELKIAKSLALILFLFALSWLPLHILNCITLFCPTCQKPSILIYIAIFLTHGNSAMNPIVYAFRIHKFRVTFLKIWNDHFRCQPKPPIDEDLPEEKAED
Procedure: Whole brain minus cerebellum and brainstem from male Long Evans rats (150-200 g) was homogenized in 30 volumes of ice-cold 0.05M Tris-HCl buffer pH 7.7 using a Brinkman Polytron PT-10, (setting number 6 for 20 seconds) and centrifuged for ten minutes at 20,000×g (Sorvall RC-2), 4° C. The supernatant was discarded, and the pellet was resuspended and centrifuged as before. […] The homogenate was again centrifuged, and the final pellet was resuspended in ice-cold 0.05 M Tris-HCl buffer pH 7.7 to a concentration of 20 mg/ml original wet tissue weight and used immediately. […] Incubation volume was 2 ml. […] The filters were rinsed three times with 5 ml of ice cold 0.05 M Tris-HCl buffer pH 7.7. The radio-labeled ligand retained on the filter was measured by liquid scintillation spectrophotometry after shaking the filters for one hour or longer on a mechanical shaker in 10 ml of Beckman Ready-Solv HP scintillation cocktail. […] The Hill coefficient was calculated by linear regression of the line obtained by plotting the log of the bound radioligand vs the log of the [formula] The maximal number of binding sites (Bmax) was calculated from the Scatchard plot.

[1] = tested on: pentobarbital-anesthetized dog; assay: In Vivo Myocardial Inotropic Activity in Anesthetized Dog (CVAD); set-up: species or system dog (adult mongrel); settings: for change in vivo at 0.1 mg/kg / change in vivo at 0.3 mg/kg / change in vivo at 1 mg/kg / change in vivo at 3.1 mg/kg / change in vivo at 0.31 mg/kg: Canis lupus familiaris, iv; for change in vivo at 0.3 mg/kg: 0.30 mg/kg IV; for change in vivo at 1 mg/kg: 1.00 mg/kg IV; for change in vivo at 0.31 mg/kg: 0.31 mg/kg IV
Procedure: This test procedure is described in the following paragraphs.
This screen consists of determining the effects of increasing intravenous doses of compound on mycardial contractility (dP/dt max of left ventricular blood pressure), heart rate, and aortic blood pressure of the pentobarbital-anesthetized dog.
Adult mongrel dogs of either sex are anesthetized with pentobarbital, 35 mg/kg, IV, and are subsequently maintained under anesthesia with a continuous infusion of pentobarbital, 3.5 mg/kg/hour. The trachea is intubated but the animals are permitted to breathe spontaneously. A cannula is inserted into the femoral vein for administrating test agents. A Millar catheter tip pressure transducer or a fluid filled catheter is inserted into the ascending aorta via the femoral artery for measuring aortic blood pressure. A Millar catheter tip pressure transducer is passed into the left ventricle via the left carotid artery for measuring left ventricular blood pressure. Needle electrodes are placed subcutaneously for recording a lead II electrocardiogram (ECG).
Left ventricular and aortic blood pressures are recorded on a strip chart recorder. Heart rate, using a biotachometer triggered from the R wave of the ECG, and the first derivative of left ventricular blood pressure (dP/dt), obtained with a differentiator amplifier coupled to the corresponding pressure amplifier, are also recorded. A period of at least 30 minutes is utilized to obtain control data prior to administration of test compound.
Ethanol or dimethylacetamide can be used as solvents if adequate dilutions can be made. Appropriate vehicle controls are administered when needed.
Each dose of the test compound is administered in a volume of […] over a period of one minute.

Type 1 Phosphodiesterase = assay: Phosphodiesterase (PDE) Inhibition, Type 1 Phosphodiesterase; type: biochemical, bovine (coronary arteries); settings: Type 1 PDE, at 10^-5 M; for % Inhibition of hydrolysis of 3H-cAMP: substrate 3H-cAMP 1.0 μM; for % Inhibition of hydrolysis of 3H-cGMP: substrate 3H-cGMP 1.0 μM
Description: as §1, §2, §3

[2] = 0.10 mg/kg IV, read-out: Percent Change Heart Rate
[3] = 0.10 mg/kg IV, read-out: Percent Change Myocardial Contractility
[4] = read-out: Percent Change Blood Pressure
[5] = read-out: Percent Change Heart Rate
[6] = read-out: Percent Change Myocardial Contractility
[7] = 3.10 mg/kg IV, read-out: Percent Change Heart Rate
[8] = 3.10 mg/kg IV, read-out: Percent Change Myocardial Contractility

Row | SMILES | % Inhibition of hydrolysis of 3H-cAMP (Type 3 Phosphodiesterase) | IC50 (adenosine A1 receptor) | change in vivo at 0.1 mg/kg ([1]; 0.10 mg/kg IV, read-out: Percent Change Blood Pressure) | change in vivo at 0.1 mg/kg [1, 2] | change in vivo at 0.1 mg/kg [1, 3] | change in vivo at 0.3 mg/kg [1, 4] | change in vivo at 0.3 mg/kg [1, 5] | change in vivo at 0.3 mg/kg [1, 6] | change in vivo at 1 mg/kg [1, 4] | change in vivo at 1 mg/kg [1, 5] | change in vivo at 1 mg/kg [1, 6] | change in vivo at 3.1 mg/kg ([1]; 3.10 mg/kg IV, read-out: Percent Change Blood Pressure) | change in vivo at 3.1 mg/kg [1, 7] | change in vivo at 3.1 mg/kg [1, 8] | % Inhibition of hydrolysis of 3H-cAMP (Type 1 Phosphodiesterase) | % Inhibition of hydrolysis of 3H-cGMP (Type 1 Phosphodiesterase) | change in vivo at 0.31 mg/kg [1, 5] | change in vivo at 0.31 mg/kg [1, 6] | Percent Change Blood Pressure ([1]; 0.10 mg/kg IV) | Percent Change Blood Pressure ([1]; 3.10 mg/kg IV)
1 | CCn1nc(C)c2nc(-c3ccncc3)[nH]c(=O)c21 [Example 3, 1-Ethyl-3-methyl-5-(4-pyridyl)pyrazolo[4,3-d]pyrimidine-7-one] | 55% | 0.237 µM | 2% | 4% | 12% | 2% | 7% | 20% | 2% | -1% | 47% | 8% | 16% | 91% | 33% | 19% | – | – | – | –
2 | Cc1nn(C)c2c(=O)[nH]c(-c3cccc(N)c3)nc12 [Example 12, 1,3-Dimethyl-5-(3-aminophenyl)pyrazolo[4,3-d]pyrimidine-7-one] | 33% | 1.54 µM | – | -8% | -1% | – | – | – | – | -8% | -12% | – | – | – | 6% | 9% | -10% | -19% | – | –
3 | Cc1nn(C)c2c(=O)[nH]c(-c3ccc(Cl)c(Cl)c3)nc12 [Example 15, 1,3-Dimethyl-5-(3,4-dichlorophenyl)pyrazolol[4,3-d]-pyrimidine-7one] | 0% | 0.887 µM | – | 7% | 8% | – | – | – | – | 9% | 13% | – | 12% | 13% | 5% | 3% | 7% | 10% | 1/2 | 1/2
4 | Cc1nn(C)c2c(=O)[nH]c(-c3ccc(C(F)(F)F)cc3)nc12 [Example 10] | -9% | 0.463 µM | – | – | – | – | – | – | – | – | – | – | – | – | 12% | 1% | – | – | – | –
